Assay results reported in patent US5593984A, “Cephalosporin derivatives” (Yuhan Corporation, priority 1992, dated 1997).
In brackets after ≈: the same amount, converted by molar mass.

Columns and labels:
Assay type in all cases: cell-based
[1] = system: S. epidermidis ATCC 12228; assay: MIC by agar dilution, S. epidermidis ATCC 12228; conditions: Staphylococcus epidermidis, ATCC12228, 17 h; S. epidermidis ATCC 12228; agar dilution, Mueller-Hinton agar; read-out: Minimal Inhibitory Concentration (MIC)
Summary of the method: (§1)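 Following inoculation at 10^6 CFU per ml onto agar containing two-fold compound dilutions, plates were incubated 17±1 hours at 35°-37° C.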

Staph. aureus C-5113 = assay: MIC by agar dilution, Staph. aureus C-5113; conditions: Staphylococcus aureus, C5113, 17 h, Mueller-Hinton agar, read-out: Minimal Inhibitory Concentration (MIC)
Summary of the method: as §1

K. pneumoniae NCTC 9632 = assay: MIC by agar dilution, K. pneumoniae NCTC 9632; conditions: Klebsiella pneumoniae, NCTC9632, 17 h; K. pneumoniae NCTC 9632; agar dilution, Mueller-Hinton agar; read-out: Minimal Inhibitory Concentration (MIC)
Summary of the method: as §1

M. morganii DY-1 = assay: MIC by agar dilution, M. morganii DY-1; conditions: Morganella morganii, DY1, 17 h; M. morganii DY-1; agar dilution, Mueller-Hinton agar; read-out: Minimal Inhibitory Concentration (MIC)
Summary of the method: as §1

E. coli No. 29 = assay: MIC by agar dilution, E. coli No. 29; conditions: Escherichia coli, 17 h; E. coli No. 29; agar dilution, Mueller-Hinton agar; read-out: Minimal Inhibitory Concentration (MIC)
Summary of the method: as §1

Ent. cloacae IFO 13535 = assay: MIC by agar dilution, Ent. cloacae IFO 13535; conditions: Enterobacter cloacae, IFO13535, 17 h; Ent. cloacae IFO 13535; agar dilution, Mueller-Hinton agar; read-out: Minimal Inhibitory Concentration (MIC)
Summary of the method: as §1

E. coli NIHJ JC-2 = assay: MIC by agar dilution, E. coli NIHJ JC-2; conditions: Escherichia coli, NIHJJC2, 17 h; E. coli NIHJ JC-2; agar dilution, Mueller-Hinton agar; read-out: Minimal Inhibitory Concentration (MIC)
Summary of the method: as §1

Staph. aureus C-5216 = assay: MIC by agar dilution, Staph. aureus C-5216; conditions: Staphylococcus aureus, C5216, 17 h, Mueller-Hinton agar, read-out: Minimal Inhibitory Concentration (MIC)
Summary of the method: as §1

Prov. stuartii IFO 12930 = assay: MIC by agar dilution, Prov. stuartii IFO 12930; conditions: Providencia stuartii, IFO12930, 17 h, Mueller-Hinton agar, read-out: Minimal Inhibitory Concentration (MIC)
Summary of the method: as §1

Staph. aureus ATCC 6538P = assay: MIC by agar dilution, Staph. aureus ATCC 6538P; conditions: Staphylococcus aureus, ATCC6538P, 17 h; Staph. aureus ATCC 6538P; agar dilution, Mueller-Hinton agar; read-out: Minimal Inhibitory Concentration (MIC)
Summary of the method: as §1

B. subtilis ATCC 6633 = assay: MIC by agar dilution, B. subtilis ATCC 6633; conditions: Bacillus subtilis, ATCC6633, 17 h; B. subtilis ATCC 6633; agar dilution, Mueller-Hinton agar; read-out: Minimal Inhibitory Concentration (MIC)
Summary of the method: as §1

Ent. aerogenes IFO 12979 = assay: MIC by agar dilution, Ent. aerogenes IFO 12979; conditions: Klebsiella aerogenes, IFO12979, 17 h, Mueller-Hinton agar, read-out: Minimal Inhibitory Concentration (MIC)
Summary of the method: as §1

Ps. aeruginosa DY-2 = assay: MIC by agar dilution, Ps. aeruginosa DY-2; conditions: Pseudomonas aeruginosa, DY2, 17 h; Ps. aeruginosa DY-2; agar dilution, Mueller-Hinton agar; read-out: Minimal Inhibitory Concentration (MIC)
Summary of the method: as §1

Staph. aureus Smith = assay: MIC by agar dilution, Staph. aureus Smith; conditions: Staphylococcus aureus, 17 h, Mueller-Hinton agar, read-out: Minimal Inhibitory Concentration (MIC)
Summary of the method: as §1

E. coli DY-1 = assay: MIC by agar dilution, E. coli DY-1; conditions: Escherichia coli, DY1, 17 h; E. coli DY-1; agar dilution, Mueller-Hinton agar; read-out: Minimal Inhibitory Concentration (MIC)
Summary of the method: as §1

P. vulgaris NCTC 8313 = assay: MIC by agar dilution, P. vulgaris NCTC 8313; conditions: Proteus vulgaris, NCTC8313, 17 h; P. vulgaris NCTC 8313; agar dilution, Mueller-Hinton agar; read-out: Minimal Inhibitory Concentration (MIC)
Summary of the method: as §1

[2] = system: Ps. aeruginosa ATCC 10145; assay: MIC by agar dilution, Ps. aeruginosa ATCC 10145; conditions: Pseudomonas aeruginosa, ATCC10145, 17 h, Mueller-Hinton agar, read-out: Minimal Inhibitory Concentration (MIC)
Summary of the method: as §1

[3] = system: Ps. aeruginosa NCTC 10490; assay: MIC by agar dilution, Ps. aeruginosa NCTC 10490; conditions: Pseudomonas aeruginosa, NCTC10490, 17 h, Mueller-Hinton agar, read-out: Minimal Inhibitory Concentration (MIC)
Summary of the method: as §1

Staph. aureus C-57 = assay: MIC by agar dilution, Staph. aureus C-57; conditions: Staphylococcus aureus, C57, 17 h, Mueller-Hinton agar, read-out: Minimal Inhibitory Concentration (MIC)
Summary of the method: as §1

[4] = system: Ser. marcescens IFO 12648; assay: MIC by agar dilution, Ser. marcescens IFO 12648; conditions: Serratia marcescens, IFO12648, 17 h; Ser. marcescens IFO 12648; agar dilution, Mueller-Hinton agar; read-out: Minimal Inhibitory Concentration (MIC)
Summary of the method: as §1

SMILES	MIC [1] [mg/L]	MIC (Staph. aureus C-5113) [mg/L]	MIC (K. pneumoniae NCTC 9632) [mg/L]	MIC (M. morganii DY-1) [mg/L]	MIC (E. coli No. 29) [mg/L]	MIC (Ent. cloacae IFO 13535) [mg/L]	MIC (E. coli NIHJ JC-2) [mg/L]	MIC (Staph. aureus C-5216) [mg/L]	MIC (Prov. stuartii IFO 12930) [mg/L]	MIC (Staph. aureus ATCC 6538P) [mg/L]	MIC (B. subtilis ATCC 6633) [mg/L]	MIC (Ent. aerogenes IFO 12979) [mg/L]	MIC (Ps. aeruginosa DY-2) [mg/L]	MIC (Staph. aureus Smith) [mg/L]	MIC (E. coli DY-1) [mg/L]	MIC (P. vulgaris NCTC 8313) [mg/L]	MIC [2] [mg/L]	MIC [3] [mg/L]	MIC (Staph. aureus C-57) [mg/L]	MIC [4] [mg/L]
NCCSc1ccc2c[n+](CC3=C(C(=O)[O-])N4C(=O)C(NC(=O)C(=NOCF)c5csc(N)n5)C4SC3)ccn12 (stereo not drawn) [Ex. 29, 7-β-[(Z)-2-(2-aminothiazol-4-yl)2-fluoromethoxyiminoacetamido]-3-[6-(2-aminoethylthio)pyrrolo[1,2-a]pyrazinium-2-yl]methyl-3-cephem-4-carboxylat]	0.05 (≈ 0.0824 µM)	0.78 (≈ 1.29 µM)	≤ 0.006	≤ 0.006	≤ 0.006	0.012 (≈ 0.0198 µM)	≤ 0.006	0.78 (≈ 1.29 µM)	≤ 0.006	0.2 (≈ 0.33 µM)	0.05 (≈ 0.0824 µM)	≤ 0.006	6.25 (≈ 10.3 µM)	0.78 (≈ 1.29 µM)	≤ 0.006	≤ 0.006	0.78 (≈ 1.29 µM)	0.2 (≈ 0.33 µM)	25 (≈ 41.2 µM)	≤ 0.006
CON=C(C(=O)NC1C(=O)N2C(C(=O)[O-])=C(C[n+]3ccn4ccc(CO)c4c3)CSC12)c1csc(N)n1 (stereo not drawn) [Ex. 30, 7-β-[(Z)-2-(2-aminothiazol-4-yl)2-methoxyiminoacetamido]-3-(8-hydroxymethylpyrrolo[1,2-a]pyrazinium-2-yl)methyl-3-cephem-4-carboxylate]	0.05 (≈ 0.092 µM)	3.13 (≈ 5.76 µM)	0.012 (≈ 0.0221 µM)	0.012 (≈ 0.0221 µM)	≤ 0.006	0.05 (≈ 0.092 µM)	≤ 0.006	0.78 (≈ 1.43 µM)	≤ 0.006	0.2 (≈ 0.368 µM)	0.1 (≈ 0.184 µM)	≤ 0.006	3.13 (≈ 5.76 µM)	0.78 (≈ 1.43 µM)	≤ 0.006	0.012 (≈ 0.0221 µM)	0.39 (≈ 0.717 µM)	0.1 (≈ 0.184 µM)	50 (≈ 92 µM)	0.012 (≈ 0.0221 µM)
CCON=C(C(=O)NC1C(=O)N2C(C(=O)[O-])=C(C[n+]3ccn4ccc(CO)c4c3)CSC12)c1csc(N)n1 (stereo not drawn) [Ex. 31, 7-β-[(Z)-2-(2-aminothiazol-4-yl)2-ethoxyiminoacetamido]-3-(8-hydroxymethylpyrrolo[1,2-a]pyrazinium-2-yl)methyl-3-cephem-4-carboxylate]	0.2 (≈ 0.359 µM)	6.25 (≈ 11.2 µM)	0.05 (≈ 0.0897 µM)	0.025 (≈ 0.0448 µM)	0.012 (≈ 0.0215 µM)	0.2 (≈ 0.359 µM)	0.05 (≈ 0.0897 µM)	3.13 (≈ 5.61 µM)	0.025 (≈ 0.0448 µM)	0.2 (≈ 0.359 µM)	0.1 (≈ 0.179 µM)	0.025 (≈ 0.0448 µM)	3.13 (≈ 5.61 µM)	1.56 (≈ 2.8 µM)	≤ 0.006	0.012 (≈ 0.0215 µM)	1.56 (≈ 2.8 µM)	0.78 (≈ 1.4 µM)	25 (≈ 44.8 µM)	0.05 (≈ 0.0897 µM)
Nc1nc(/C(=N/OCF)C(=O)N[C@@H]2C(=O)N3C(C(=O)[O-])=C(C[n+]4ccn5ccc(CO)c5c4)CS[C@H]23)cs1 [Ex. 32, 7-β-[(Z)-2-(2-aminothiazol-4-yl)2-fluoromethoxyiminoacetamido]-3-(8-hydroxymethylpyrrolo[1,2-a]pyrazinium-2-yl)methyl-3-cephem-4-carboxylate]	0.1 (≈ 0.178 µM)	3.13 (≈ 5.57 µM)	0.025 (≈ 0.0445 µM)	0.025 (≈ 0.0445 µM)	≤ 0.006	0.1 (≈ 0.178 µM)	≤ 0.006	1.56 (≈ 2.78 µM)	0.012 (≈ 0.0214 µM)	0.2 (≈ 0.356 µM)	0.1 (≈ 0.178 µM)	0.025 (≈ 0.0445 µM)	3.13 (≈ 5.57 µM)	0.78 (≈ 1.39 µM)	≤ 0.006	0.012 (≈ 0.0214 µM)	0.78 (≈ 1.39 µM)	0.2 (≈ 0.356 µM)	25 (≈ 44.5 µM)	0.05 (≈ 0.089 µM)
